Results: US20030129629A1, “Methods and compositions for the identification, assessment, prevention, and therapy of human cancers” (Millennium Pharmaceuticals, Inc., priority 2000, published 2003)
Where “and” joins values, the source holds several entries; their conditions need not be identical. Equal entries are not always repeated. Where two headings read alike, the source gives them in different places.

System: 60 cancer cell lines (NCI 60 cancer cell line series)
Test: NCI-DTP in vitro cancer screen, sulforhodamine B (SRB) growth inhibition, 48 hour exposure
Assay type: cell-based, human
Experimental: Cancer Cell Line Preparation. Sixty cancer cell lines were obtained from the National Cancer Institute Developmental Therapeutics Program (NCI-DTP). Procedures for growing cells and testing compounds have been described previously (Scudiero et al., Cancer Res. 1988, 48:4827-4833; Stinson et al., Anticancer Res.; Myers et al., Electrophoresis 1997, 18:647-653). Cells are plated on day 0 at a density individualized for each cell line so that they will generally be sub-confluent at the end of the assay period. On day 1, a compound is added in the format for a duplicate-well, 5-dose, ten-fold interval dose response study.
No-drug, no-cell and no-growth controls are included. On day 3 the cells are processed for staining with sulforhodamine B (SRB), which reflects the amount of cell mass present at the end of a 48 hour exposure to the test agent. From dose response curves based on the SRB data, various parameters can be determined. […] More precisely, the quantity used in the calculation to be described is the potency measure −log{GI50}.
Activity database (A). […] This subset of compounds was selected from the larger 23,000 compound database available from the DTP. The compounds were selected on the basis of their known mechanism of action and chemical structure. The average potency −log{GI50} was extracted from the comma-delimited text files available through the Web at http://www.nci.nih.gov/intra/lmp/jnwbio.html. Subsequently, these −log{GI50} values were inspected manually and classified as indicating either Low, Medium or High sensitivity to each compound.

O=C(O)CCCc1ccc(N(CCCl)CCCl)cc1 [Chlorambucil]
2 and 3 and 1: classification of cell line as Low(1), Medium(2), High(3) sensitivity to compound
2: classification of cell line as Low(1), Medium(2), High(3) sensitivity to compound (Breast MCF7(I) CL5001) | classification of cell line as Low(1), Medium(2), High(3) sensitivity to compound (Breast MCF7/ADRr CL5002) | classification of cell line as Low(1), Medium(2), High(3) sensitivity to compound (Breast T-47D CL5014) | classification of cell line as Low(1), Medium(2), High(3) sensitivity to compound (Colon HCT-15 CL4015) | classification of cell line as Low(1), Medium(2), High(3) sensitivity to compound (Colon SW-620 CL4009) | classification of cell line as Low(1), Medium(2), High(3) sensitivity to compound (Leukemia RPMI-8226(I) CL7010) | classification of cell line as Low(1), Medium(2), High(3) sensitivity to compound (Melanoma LOX IMVI CL10001) | classification of cell line as Low(1), Medium(2), High(3) sensitivity to compound (Melanoma M14 CL10014) | classification of cell line as Low(1), Medium(2), High(3) sensitivity to compound (Melanoma MALME-3M CL10002) | classification of cell line as Low(1), Medium(2), High(3) sensitivity to compound (Melanoma SK-MEL-5 CL10007) | classification of cell line as Low(1), Medium(2), High(3) sensitivity to compound (Melanoma UACC-257 CL10021) | classification of cell line as Low(1), Medium(2), High(3) sensitivity to compound (NSCLC A549/ATCC CL1004) | classification of cell line as Low(1), Medium(2), High(3) sensitivity to compound (NSCLC HOP-62 CL1026) | classification of cell line as Low(1), Medium(2), High(3) sensitivity to compound (NSCLC HOP-92 CL1029) | sensitivity classification Low(1)/Medium(2)/High(3) (NSCLC NCI-H23(I) CL1001) | classification of cell line as Low(1), Medium(2), High(3) sensitivity to compound (NSCLC NCI-H226 CL1013) | sensitivity classification Low(1)/Medium(2)/High(3) (NSCLC NCI-H522 CL1003) | sensitivity classification Low(1)/Medium(2)/High(3) (Ovarian OVCAR-8 CL6005) | sensitivity classification Low(1)/Medium(2)/High(3) (Prostate DU-145 CL11003) | sensitivity classification Low(1)/Medium(2)/High(3) (Renal 786-0 CL9018) | sensitivity classification Low(1)/Medium(2)/High(3) (Renal RXF-393 CL9016) | sensitivity classification Low(1)/Medium(2)/High(3) (Renal SN12C CL9008) | sensitivity classification Low(1)/Medium(2)/High(3) (Renal UO-31 CL9004)
3: classification of cell line as Low(1), Medium(2), High(3) sensitivity to compound (Leukemia CCRF-CEM(I) CL7003) | classification of cell line as Low(1), Medium(2), High(3) sensitivity to compound (Leukemia HL-60(I) CL7008) | classification of cell line as Low(1), Medium(2), High(3) sensitivity to compound (Leukemia MOLT-4 CL7006) | classification of cell line as Low(1), Medium(2), High(3) sensitivity to compound (Leukemia SR CL7019) | classification of cell line as Low(1), Medium(2), High(3) sensitivity to compound (Melanoma UACC-62 CL10020) | sensitivity classification Low(1)/Medium(2)/High(3) (NSCLC NCI-H460 CL1021) | sensitivity classification Low(1)/Medium(2)/High(3) (Renal ACHN CL9023) | sensitivity classification Low(1)/Medium(2)/High(3) (Renal CAKI-1 CL9015)
1: classification of cell line as Low(1), Medium(2), High(3) sensitivity to compound (Breast BT-549 CL5013) | classification of cell line as Low(1), Medium(2), High(3) sensitivity to compound (Breast HS-578T CL5006) | classification of cell line as Low(1), Medium(2), High(3) sensitivity to compound (Breast MDA-MB-231 CL5005) | classification of cell line as Low(1), Medium(2), High(3) sensitivity to compound (Breast MDA-MB-435 CL5011) | classification of cell line as Low(1), Medium(2), High(3) sensitivity to compound (Breast MDA-N CL5012) | classification of cell line as Low(1), Medium(2), High(3) sensitivity to compound (Colon COLO-250 CL4010) | classification of cell line as Low(1), Medium(2), High(3) sensitivity to compound (Colon HCC-2998 CL4002) | classification of cell line as Low(1), Medium(2), High(3) sensitivity to compound (Colon HCT-116 CL4003) | classification of cell line as Low(1), Medium(2), High(3) sensitivity to compound (Colon HT29(I) CL4001) | classification of cell line as Low(1), Medium(2), High(3) sensitivity to compound (Colon KM12 CL4017) | classification of cell line as Low(1), Medium(2), High(3) sensitivity to compound (Leukemia K562(I) CL7005) | classification of cell line as Low(1), Medium(2), High(3) sensitivity to compound (Melanoma SK-MEL-2 CL10005) | classification of cell line as Low(1), Medium(2), High(3) sensitivity to compound (Melanoma SK-MEL-28 CL10008) | classification of cell line as Low(1), Medium(2), High(3) sensitivity to compound (NSCLC EKVX CL1008) | sensitivity classification Low(1)/Medium(2)/High(3) (NSCLC NCI-H332M CL1017) | sensitivity classification Low(1)/Medium(2)/High(3) (Ovarian IGROV1 CL6010) | sensitivity classification Low(1)/Medium(2)/High(3) (Ovarian OVCAR-3 CL6001) | sensitivity classification Low(1)/Medium(2)/High(3) (Ovarian OVCAR-4 CL6002) | sensitivity classification Low(1)/Medium(2)/High(3) (Ovarian OVCAR-5 CL6003) | sensitivity classification Low(1)/Medium(2)/High(3) (Ovarian SK-OV-3 CL6011) | sensitivity classification Low(1)/Medium(2)/High(3) (Prostate PC-3(I) CL11001) | sensitivity classification Low(1)/Medium(2)/High(3) (Renal A498 CL9013) | sensitivity classification Low(1)/Medium(2)/High(3) (Renal TK10 CL9024)
